Measurements: patent US12216122B2, “Compositions and methods relating to detection, inhibition, and imaging of indoleamine 2,3-dioxygenase 1 (IDO1)” (Regeneron Pharmaceuticals, Inc., priority 2019, dated 2025)
Entries after “also recorded” stand apart in the source; their conditions may differ. Where two headings read alike, the source gives them in different places. One block for each compound: values may come before it. Numbered stars: 1 amine (or outer) side, 2 acyl side, 3 side chain; on linkers, the order of the positions; unused ones are H or OH. Bridge positions count the residues as written; N and C are the ends. Square brackets hold non-standard residues; d marks the D form. Triazole bridges read from a SMILES are 1,4-linked. Ends that are not written are not given here. Peptide text beside a SMILES is read from it. * marks the point of attachment. Biotinyl(3aR,4R,6aS) = O=C1N[C@@H]2[C@@H](CS[C@@H]2CCCCC(=O)*)N1; NH(CH2CH2O)5CH2CO = O=C(COCCOCCOCCOCCOCCN[*:1])[*:2]; dTrp(1-Me) = Cn1cc(C[C@@H](N)C(=O)O)c2ccccc21; X1 = O=C(CSc1nonc1/C(=N/O)Nc1ccc(F)c(Br)c1)*; Lys(N3) = [N-]=[N+]=NCCCC[C@H](N)C(=O)O; dPhe(4-F) = N[C@H](Cc1ccc(F)cc1)C(=O)O; dNMeV = CN[C@@H](C(=O)O)C(C)C; AEEEA = NCCOCCOCCOCC(=O)O; Pra = C#CC[C@H](N)C(=O)O; βAla = NCCC(=O)O

Experiments:
[1] = Percent organic elution in reverse-phase HPLC (C18) as lipophilicity readout; format: physicochemical; details: for % MeCN: Table 16
From the text: The predicted increase in lipophilicity for wyvay (SEQ ID NO:2) was experimentally confirmed by the percent organic (% B) elution during reverse-phase HPLC (RP-HPLC) using a C18 column where solvents A=water+0.1% TFA and B=acetonitrile+0.1% TFA.

[2] = biological target: murine IDO1 protein (Mus musculus, UniProt P28776); assay: ELISA against murine IDO1 protein (species cross-reactivity); format: binding; details: Table 10; read-out: Mouse IDO EC50
Chain of murine IDO1 protein (P28776 whole entry): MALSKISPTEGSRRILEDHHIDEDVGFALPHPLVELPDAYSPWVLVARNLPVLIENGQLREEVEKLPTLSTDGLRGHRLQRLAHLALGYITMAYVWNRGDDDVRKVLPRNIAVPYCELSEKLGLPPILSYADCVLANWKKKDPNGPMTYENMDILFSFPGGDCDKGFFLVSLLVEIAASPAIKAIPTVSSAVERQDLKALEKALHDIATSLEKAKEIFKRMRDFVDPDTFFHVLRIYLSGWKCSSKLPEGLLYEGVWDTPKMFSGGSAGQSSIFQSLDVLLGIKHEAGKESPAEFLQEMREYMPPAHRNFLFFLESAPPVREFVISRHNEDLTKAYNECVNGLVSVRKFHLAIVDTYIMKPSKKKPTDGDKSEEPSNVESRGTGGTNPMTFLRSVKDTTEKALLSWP
Method: (§1) Protocol: A black 96-well NEUTRAVIDIN® Coated High Binding Capacity plate (15510, Pierce) was coated with 2 μM biotinylated macrocyclic peptide ligand in TBS (25 mM Tris-HCl, 150 mM NaCl, pH 7.6) for 2 h at room temperature. The plate was aspirated and then washed with Wash Buffer (0.05% (v/v) TWEEN® 20 in PBS, 6×). His-tagged IDO1 human recombinant protein (71182, BPS Biosciences) was serially diluted in Wash Buffer (from 200 to 0 nM) and incubated in the designated microwells for 1 h at room temperature. Microwells were aspirated and subsequently washed with Wash Buffer (11×). To detect the bound IDO1 protein, Alkaline Phosphatase (AP)-conjugated Anti-6×HIS TAG® antibody [HIS-1] (ab49746, Abcam) was prepared at 1:10,000 dilution and added to the microwells for 1 h at room temperature. The plate was aspirated and washed with Wash Buffer (5×). ATTOPHOS® AP Fluorescent Substrate System (S1000, Promega) was employed to develop the microwells. Using an excitation wavelength of 430 nm, fluorescent emission at 535 nm was recorded by Beckman Coulter DTX880 photometer. Titration curves were fit using a four-parameter regression curve fitting program to determine EC50 values.
To test for cross-reactivity with murine IDO1, the human IDO1 targeted macrocyclic peptide ligands were assayed against the murine IDO1 protein by ELISA.

[3] = biological target: T1, His-tagged IDO1 human recombinant protein (Homo sapiens, UniProt P14902); assay: IDO1 ELISA (Affinity Assay): sandwich ELISA, biotinylated ligand immobilized on NEUTRAVIDIN plate; format: binding; details: for Binding to human IDO1 by ELISA, in words: alanine scan, 3-mer/4-mer and substituted variants compared with parent macrocycle
T1 construct: purchased BPS Biosciences 71182
T1 sequence (P14902 whole entry): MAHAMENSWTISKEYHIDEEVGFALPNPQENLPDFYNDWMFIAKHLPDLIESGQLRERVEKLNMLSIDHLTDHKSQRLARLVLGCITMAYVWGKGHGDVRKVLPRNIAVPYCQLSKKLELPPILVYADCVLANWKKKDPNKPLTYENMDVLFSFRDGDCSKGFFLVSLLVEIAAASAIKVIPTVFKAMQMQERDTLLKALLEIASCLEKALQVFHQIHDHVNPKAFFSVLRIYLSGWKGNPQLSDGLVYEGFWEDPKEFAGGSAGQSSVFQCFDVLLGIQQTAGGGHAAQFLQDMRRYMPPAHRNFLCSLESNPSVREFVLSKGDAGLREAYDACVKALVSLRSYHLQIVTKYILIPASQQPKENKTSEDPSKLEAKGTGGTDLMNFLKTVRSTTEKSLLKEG
Method: as §1
For these assays, a dilution series of His-tagged IDO1 human recombinant protein was captured using the macrocyclic peptide ligands immobilized on a NEUTRAVIDIN®-coated plate. […] The sequences of the peptide ligands are listed in Table 1, where D-amino acids are denoted in lowercase, Me-Trp=1-methyl-L-tryptophan, and F-Phe=4-fluoro-L-phenylalanine. Chemical structures are shown below Table 1.
The D-alanine substituted, biotin-PEG3-modified macrocycles were tested in the IDO1 ELISA (Affinity assay). For these assays, a dilution series of His-tagged IDO1 human recombinant protein was captured using macrocycles immobilized on a NEUTRAVIDIN®-coated plate.

[4] = system: HeLa cells; assay: Cellular internalization of fluorescent IDO1 ligands (flow cytometry); format: cell-based; details: for Internalization of fluorescently labeled peptide, in words: Cy5 or FITC label, flow cytometry
Method: Internalization of fluorescently labeled peptides (using Cy5 or FITC) was measured by concentration dependent flow cytometry of unstimulated HeLa cells incubated for one hour with the peptide. […] Internalization was also testing using a cellular inhibition assay, which occurs over 48 hours (rather than the one hour for the flow cytometry assay). Internalized FITC-wyvay (SEQ ID NO:2) at 48 hours was compared to one hour in both unstimulated and stimulated HeLa cells (Table 13). Cell penetration of FITC-wyvay (SEQ ID NO:2) increases with time; more internalized FITC-wyvay (SEQ ID NO:2) can be detected at 48 hours compared to one hour. After one hour, no difference in intracellular staining of FITC-wyvay (SEQ ID NO:2) is observed in unstimulated versus stimulated cells. At 48 hours, there is a slight increase in intracellular FITC-wyvay (SEQ ID NO:2) in stimulated compared to unstimulated cells.
Protocol: HeLa cells were cultured to confluence (˜500,000 cells) in 6-well plates in cell culture medium (DMEM+10% Fetal Bovine Serum (FBS)+1% Penicillin/Streptomycin) or in cell culture medium containing 100 ng/mL IFNγ to stimulate IDO1 expression. The cells were treated with 2 μM or 8 μM macrocyclic IDO1 ligand labeled with either Cy5 or FITC for either 1 hour, 24 hours, or 48 hours as indicated. After treatment, the ligands were aspirated and the cells were washed twice with 1× Phosphate Buffered Saline (PBS). The cells were then harvested by treatment with 0.05% Trypsin-1×EDTA for 5 min at 37° C. Trypsin was quenched by the addition of PBS+2% FBS. The cells in suspension were washed twice in PBS+2% FBS, then resuspended in 500 μL PBS+2% FBS and analyzed for Cy5 or FITC fluorescence using a BD LSR Fortessa X-20 flow cytometer or/and ImageStream X Mark II imaging flow cytometer. Flow Cytometry Standard (fcs) data files were analyzed using FlowJo Software version 10.

[5] = 2 μM biotinylated macrocycle immobilized, human IDO1 titrated 200 to 0 nM, read-out: EC50, sandwich ELISA for human IDO1 protein against biotin-PEG3-modified macrocycle
[6] = Table 10, read-out: Human IDO EC50
[7] = binding analysis of VHL-linked Epitope 2 ligand, read-out: EC50

Compound: CC(C)[C@H](NC(=O)CCNC(=O)CSc1nonc1/C(=N/O)Nc1ccc(F)c(Br)c1)C(=O)N[C@H](C(=O)N[C@H](C(=O)N[C@H]1Cc2cn(nn2)CCCC[C@@H](C(N)=O)NC(=O)[C@@H](Cc2ccc(O)cc2)NC(=O)[C@@H](C)NC(=O)[C@@H](C(C)C)NC(=O)[C@@H](Cc2ccc(O)cc2)NC(=O)[C@@H](Cc2c[nH]c3ccccc23)NC1=O)C(C)C)C(C)C [Inh-BA-(Val)3-wyvay] ({X1-βAla}-VVV[Pra][dW][dY][dV][dA][dY][Lys(N3)]-NH2; triazole 4-10)
- % MeCN [1]: 45.12%

Compound: CC(C)[C@H]1NC(=O)[C@@H](Cc2ccc(O)cc2)NC(=O)[C@@H](Cc2c[nH]c3ccccc23)NC(=O)[C@@H](NC(=O)COCCOCCOCCOCCOCCNC(=O)CCNC(=O)CSc2nonc2/C(=N/O)Nc2ccc(F)c(Br)c2)Cc2cn(nn2)CCCC[C@@H](C(N)=O)NC(=O)[C@@H](Cc2ccc(O)cc2)NC(=O)[C@@H](C)NC1=O [Inh-BA-PEG5-wyvay] ({X1-βAla}-[NH(CH2CH2O)5CH2CO][Pra][dW][dY][dV][dA][dY][Lys(N3)]-NH2; triazole 2-8; N-terminus and C-terminus assumed)
- % MeCN [1]: 46.90%

Compound: CC(C)[C@H]1NC(=O)[C@@H](Cc2ccc(O)cc2)NC(=O)[C@@H](Cc2c[nH]c3ccccc23)NC(=O)[C@@H](NC(=O)CNC(=O)CNC(=O)CNC(=O)CNC(=O)CNC(=O)CNC(=O)CNC(=O)CSc2nonc2/C(=N/O)Nc2ccc(F)c(Br)c2)Cc2cn(nn2)CCCC[C@@H](C(N)=O)NC(=O)[C@@H](Cc2ccc(O)cc2)NC(=O)[C@@H](C)NC1=O [Inh-Gly7-wyvay] (X1-GGGGGGG[Pra][dW][dY][dV][dA][dY][Lys(N3)]-NH2; triazole 8-14)
- % MeCN [1]: 43.72%

- EC50 [2]: 36 ± 16 nM
- EC50 [3, 5]: 20 nM
- EC50 ([3]; Example 9, read-out: Binding affinity (EC50) of prioritized Epitope 1 hits): 20 nM
- EC50 [3, 6]: 18 ± 2 nM
Compound: Cn1cc(C[C@H]2NC(=O)[C@@H](Cc3ccccc3)NC(=O)[C@@H](CCCNC(=N)N)NC(=O)[C@@H](Cc3ccccc3)NC(=O)[C@@H](NC(=O)COCCOCCOCCNC(=O)CCCC[C@H]3SC[C@H]4NC(=O)N[C@H]43)Cc3cn(nn3)CCCC[C@@H](C(N)=O)NC(=O)[C@@H](CO)NC2=O)c2ccccc21 [frf(Me-Trp)s, biotin-PEG3-Cy(frf(Me-Trp)s)] ({Biotinyl(3aR,4R,6aS)-AEEEA}-[Pra][dF][dR][dF][dTrp(1-Me)][dS][Lys(N3)]-NH2; triazole 1-7)

- EC50 [2]: 89 ± 26 nM
- EC50 [3, 5]: 20 nM
- EC50 [3, 6]: 19 ± 1 nM
- EC50 [3, 7]: 44 nM
Compound: CC(C)C[C@H]1NC(=O)[C@@H](CC(N)=O)NC(=O)[C@@H](NC(=O)COCCOCCOCCNC(=O)CCCC[C@H]2SC[C@H]3NC(=O)N[C@H]32)Cc2cn(nn2)CCCC[C@@H](C(N)=O)NC(=O)[C@@H](Cc2ccc(F)cc2)NC(=O)[C@@H](Cc2cn(C)c3ccccc23)NC(=O)[C@@H](Cc2ccccc2)NC1=O [nlf(Me-Trp)(F-Phe), biotin-PEG3-Cy(nlf(Me-Trp)(F-Phe))] ({Biotinyl(3aR,4R,6aS)-AEEEA}-[Pra][dN][dL][dF][dTrp(1-Me)][dPhe(4-F)][Lys(N3)]-NH2; triazole 1-7)

- EC50 [2]: 48 nM
- EC50 [3, 5]: 43 nM
- EC50 [3, 6]: 51 ± 17 nM
Compound: CC(C)C[C@H]1NC(=O)[C@@H](CC(N)=O)NC(=O)[C@@H](NC(=O)COCCOCCOCCNC(=O)CCCC[C@H]2SC[C@H]3NC(=O)N[C@H]32)Cc2cn(nn2)CCCC[C@@H](C(N)=O)NC(=O)[C@@H](CCCNC(=N)N)NC(=O)[C@@H](Cc2cn(C)c3ccccc23)NC(=O)[C@@H](Cc2c[nH]c3ccccc23)NC1=O [nlw(Me-Trp)r, biotin-PEG3-Cy(nlw(Me-Trp)r)] ({Biotinyl(3aR,4R,6aS)-AEEEA}-[Pra][dN][dL][dW][dTrp(1-Me)][dR][Lys(N3)]-NH2; triazole 1-7)

- EC50 [2]: 44 nM
- EC50 [3, 5]: 65 nM
- EC50 [3, 6]: 85 ± 18 nM
Compound: NC(=O)[C@@H]1CCCCn2cc(nn2)C[C@H](NC(=O)COCCOCCOCCNC(=O)CCCC[C@H]2SC[C@H]3NC(=O)N[C@H]32)C(=O)N[C@H](CO)C(=O)N2CCC[C@@H]2C(=O)N[C@H](Cc2c[nH]c3ccccc23)C(=O)N[C@H](Cc2c[nH]c3ccccc23)C(=O)N[C@H](Cc2ccc(F)cc2)C(=O)N1 [spww(F-Phe), biotin-PEG3-Cy(spww(F-Phe))] ({Biotinyl(3aR,4R,6aS)-AEEEA}-[Pra][dS][dP][dW][dW][dPhe(4-F)][Lys(N3)]-NH2; triazole 1-7)

Compound: N=C(N)NCCC[C@H]1NC(=O)[C@@H](Cc2ccc(O)cc2)NC(=O)[C@@H](Cc2c[nH]c3ccccc23)NC(=O)[C@@H](NC(=O)COCCOCCOCCNC(=O)CCCC[C@H]2SC[C@H]3NC(=O)N[C@H]32)Cc2cn(nn2)CCCC[C@@H](C(N)=O)NC(=O)[C@@H](Cc2ccc(O)cc2)NC1=O [wyry, Biotin-PEG3-Cy(wyry)] ({Biotinyl(3aR,4R,6aS)-AEEEA}-[Pra][dW][dY][dR][dY][Lys(N3)]-NH2; triazole 1-6)
- Internalization of fluorescently labeled peptide, in words [4]: Concentration dependent internalization
- Binding to human IDO1 by ELISA, in words [3]: best affinity among the 4-mer macrocycles; also recorded: superior binding affinity

- HPLC % B ([1]; Table 12, C18, A=water+0.1% TFA, B=acetonitrile+0.1% TFA): 33.4%
- EC50 ([3]; Table 12, read-out: EC50): 45 nM
- Binding to human IDO1 by ELISA, in words [3]: modest loss in binding affinity
- EC50 [3, 7]: 45 nM
Compound: CC(C)[C@H]1NC(=O)[C@@H](Cc2ccc(O)cc2)NC(=O)[C@@H](Cc2c[nH]c3ccccc23)NC(=O)[C@@H](N)Cc2cn(nn2)CCCC[C@@H](C(N)=O)NC(=O)[C@@H](Cc2ccc(O)cc2)NC(=O)[C@@H](C)NC1=O [wyvay] (H-[Pra][dW][dY][dV][dA][dY][Lys(N3)]-NH2; triazole 1-7)
- Internalization of fluorescently labeled peptide, in words [4]: dose response cellular uptake; also recorded: Concentration dependent internalization

Compound: FITC-wyvay: FITC labeled wyvay macrocycle ([dW][dY][dV][dA][dY]; triazole (positions not given here); also: FITC label, site not given here, macrocycle by click between N-terminal Pra and C-terminal Az4, not in chain)
- MFIR ([4]; stimulated HeLa cells, 1 hour): 2.11
- MFIR ([4]; stimulated HeLa cells, 48 hours): 5.27
- MFIR ([4]; unstimulated HeLa cells, 1 hour): 2.27
- MFIR ([4]; unstimulated HeLa cells, 48 hours): 4.91

Compound: wy(N-Me-v)ay: wyvay peptide ligand with N-methylated valine (third N—H) ([Pra][dW][dY][dNMeV][dA][dY]; triazole N-C; not fully specified (C-terminus); printed as wy(N-Me-v)ay)
- Internalization of fluorescently labeled peptide, in words [4]: much higher than wyvay
